From patent US20250026721A1, “COMPOUNDS AND METHODS FOR MODULATING RAS-PI3K” (Vividion Therapeutics, Inc., priority 2023, published 2025)

Target: T1, PIK3CA (Homo sapiens, UniProt P42336)
T1 construct: endogenous in cells; host or cells: Jurkat cell lysate
Assay: In vitro ELISA target engagement assay for PIK3CA in Jurkat cellular lysate (competition with PIK3CA Biotin Probe)
Assay type: binding
Conditions: 1 hour at rt, then 500 nM PIK3CA Biotin Probe, read-out: Elisa Target Engagement Assay (TE50)
Experimental: Example 3. In Vitro ELISA Target Engagement Assay for […] Engagement of compounds on PIK3CA were assessed in Jurkat cellular lysate via a sandwich ELISA. A solution of PIK3CA Biotin Probe was generated at 10 mM and used in the biological testing. […] Treatment Protocol: Jurkat cellular lysate was generated from frozen cell pellets. Cells were thawed on ice and resuspended in cold Dulbecco's phosphate buffered saline (DPBS) (12 mL/300 e^6 cells) then lysed by probe sonication (12×3 second pulses). Jurkat lysate was plated (50 μl/well) in Armadillo 96 well PCR plates (Thermo Fisher catalog number AB2396). The lysate was treated with serial dilutions of test compounds up to 200 μM and incubated for 1 hour at rt. Following compound incubation, PIK3CA Biotin Probe was added to a final concentration of 500 nM, and lysate was mixed by pipetting gently and incubated for an additional 1 hour at rt. The mixture was then diluted in 75 μL Dilution buffer. The mixture was centrifuged for 5 minutes at 4122 g and stored at −80° C. until ELISA TE detection. ELISA TE Detection: Quantification of PIK3CA TE was initiated by coating of the ELISA plate (Thermo Scientific White 384-Well Immuno plates; Thermo Fisher catalog number 460372). The capture antibody was diluted in plating buffer (1:83) and added to the ELISA plate, 20 μl/well, overnight at 4° C. The plate was then washed twice with PBST, 100 μl/well, and blocked with addition of blocking buffer (100 μl/well, 1 hour at rt). During block, treated and probe labeled lysate was thawed. After Block, the block buffer was removed and the thawed lysate was added to the ELISA plate, 30 μl/well, for 1.5 hours at rt. Following lysate incubation, the assay plate was washed 3 times with PBST, 100 μl/well. The Neutravidin-HRP was then diluted (1:500 in dilution buffer) and added for 1 hour at rt, 20 μl/well. Following incubation, the assay plate was washed 4 times with PBST, 100 μl/well, HRP substrate was added to plate, 20 μl/well and luminescence signal was read (Clariostar Plate Reader). For each compound the potency of target engagement (TE50) was determined using Graphpad Prism.

T1 sequence (P42336 whole entry): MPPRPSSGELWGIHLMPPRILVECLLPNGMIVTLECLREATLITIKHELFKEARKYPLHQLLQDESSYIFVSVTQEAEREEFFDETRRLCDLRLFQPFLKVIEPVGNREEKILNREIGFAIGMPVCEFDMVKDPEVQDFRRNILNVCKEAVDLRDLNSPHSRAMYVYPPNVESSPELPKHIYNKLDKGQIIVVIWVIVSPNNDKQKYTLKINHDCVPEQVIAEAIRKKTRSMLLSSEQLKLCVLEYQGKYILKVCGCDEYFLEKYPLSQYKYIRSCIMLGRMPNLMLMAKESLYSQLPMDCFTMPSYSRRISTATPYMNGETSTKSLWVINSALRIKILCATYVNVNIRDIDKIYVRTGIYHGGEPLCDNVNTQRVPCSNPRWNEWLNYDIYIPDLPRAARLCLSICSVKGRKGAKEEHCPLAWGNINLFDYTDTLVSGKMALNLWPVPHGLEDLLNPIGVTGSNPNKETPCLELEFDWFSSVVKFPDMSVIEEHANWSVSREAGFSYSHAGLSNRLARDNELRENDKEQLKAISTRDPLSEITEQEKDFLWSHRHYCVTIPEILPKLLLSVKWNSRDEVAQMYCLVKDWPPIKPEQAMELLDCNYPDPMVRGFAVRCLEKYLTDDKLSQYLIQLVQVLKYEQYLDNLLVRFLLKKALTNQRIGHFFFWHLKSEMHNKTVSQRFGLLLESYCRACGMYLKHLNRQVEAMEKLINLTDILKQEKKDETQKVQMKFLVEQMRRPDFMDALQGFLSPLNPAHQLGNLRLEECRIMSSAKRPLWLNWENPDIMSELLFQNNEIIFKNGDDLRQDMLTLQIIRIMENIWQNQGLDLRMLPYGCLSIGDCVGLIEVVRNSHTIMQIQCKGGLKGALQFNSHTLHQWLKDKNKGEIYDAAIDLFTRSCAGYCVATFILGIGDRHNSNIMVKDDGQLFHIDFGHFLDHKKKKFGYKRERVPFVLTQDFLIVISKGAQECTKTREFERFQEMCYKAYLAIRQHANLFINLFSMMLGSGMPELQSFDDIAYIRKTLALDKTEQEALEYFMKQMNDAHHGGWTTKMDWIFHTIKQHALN
T1 sequence (P27986 whole entry partner): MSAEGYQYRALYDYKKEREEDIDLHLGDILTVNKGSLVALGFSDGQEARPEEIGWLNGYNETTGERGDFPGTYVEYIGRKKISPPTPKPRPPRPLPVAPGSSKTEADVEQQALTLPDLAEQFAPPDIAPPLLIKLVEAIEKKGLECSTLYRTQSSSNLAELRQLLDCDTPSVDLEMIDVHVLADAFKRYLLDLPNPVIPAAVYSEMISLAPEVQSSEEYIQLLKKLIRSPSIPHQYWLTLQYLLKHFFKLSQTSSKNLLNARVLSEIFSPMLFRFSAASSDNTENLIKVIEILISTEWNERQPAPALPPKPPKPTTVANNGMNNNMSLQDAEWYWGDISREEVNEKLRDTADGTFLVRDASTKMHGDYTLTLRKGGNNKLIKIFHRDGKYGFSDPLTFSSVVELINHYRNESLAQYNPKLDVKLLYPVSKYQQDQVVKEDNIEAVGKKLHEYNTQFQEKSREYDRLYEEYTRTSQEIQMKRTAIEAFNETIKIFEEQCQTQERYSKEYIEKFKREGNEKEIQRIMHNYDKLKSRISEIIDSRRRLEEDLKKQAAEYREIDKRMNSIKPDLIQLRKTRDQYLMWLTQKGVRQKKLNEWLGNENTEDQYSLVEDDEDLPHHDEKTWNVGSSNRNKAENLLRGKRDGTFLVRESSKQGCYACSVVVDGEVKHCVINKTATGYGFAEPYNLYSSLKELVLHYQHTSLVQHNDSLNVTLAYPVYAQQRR

SMILES	IC50
COC1(C(=O)N[C@H](C)/C=C\S(C)(=O)=O)CCN(S(=O)(=O)c2ccc(C(F)(F)F)cc2-c2ccccc2Cl)CC1 [Compound 139, (R,Z)-1-((2′-chloro-5-(trifluoromethyl)-[1,1′-biphenyl]-2-yl)sulfonyl)-4-methoxy-N-(4-(methylsulfonyl)but-3-en-2-yl)piperidine-4-carboxamide]	330 nM
C[C@H](/C=C\S(C)(=O)=O)NC(=O)[C@]1(F)CCN(S(=O)(=O)c2ccc(C(F)(F)F)cc2-c2ccccc2Cl)[C@H](C)C1 [Compound 142, (2R,4S)-1-((2′-chloro-5-(trifluoromethyl)-[1,1′-biphenyl]-2-yl)sulfonyl)-4-fluoro-2-methyl-N-((R,Z)-4-(methylsulfonyl)but-3-en-2-yl)piperidine-4-carboxamide]	120 nM
C[C@H](/C=C\S(C)(=O)=O)NC(=O)[C@]1(F)CCN(S(=O)(=O)c2ccc(C#N)cc2-c2ccccc2Cl)[C@H](C)C1 [Compound 144, (2R,4S)-1-((2′-chloro-5-cyano-[1,1′-biphenyl]-2-yl)sulfonyl)-4-fluoro-2-methyl-N-((R,Z)-4-(methylsulfonyl)but-3-en-2-yl)piperidine-4-carboxamide]	55 nM
COc1ccc(S(=O)(=O)N2CCC(OC)(C(=O)N[C@H](C)/C=C\S(C)(=O)=O)CC2)c(-c2ccccc2Cl)c1 [Compound 146, 1-[2-(2-chlorophenyl)-4-methoxy-phenyl]sulfonyl-4-methoxy-N—[(Z,1R)-1-methyl-3-methylsulfonyl-allyl]piperidine-4-carboxamide]	610 nM
C[C@H](/C=C/C(=O)N1CC(F)(F)C1)NC(=O)[C@]1(F)CCN(S(=O)(=O)c2ccc(C(F)(F)F)cc2-c2ccccc2Cl)[C@H](C)C1 [Compound 152, (2R,4S)-1-((2′-chloro-5-(trifluoromethyl)-[1,1′-biphenyl]-2-yl)sulfonyl)-N-((R,E)-5-(3,3-difluoroazetidin-1-yl)-5-oxopent-3-en-2-yl)-4-fluoro-2-methylpiperidine-4-carboxamide]	450 nM
C[C@H](/C=C/C(=O)N1CC(F)(F)C1)NC(=O)[C@]1(F)CCN(S(=O)(=O)c2ccc(C#N)cc2-c2ccccc2Cl)[C@H](C)C1 [Compound 154, (2R,4S)-1-((2′-chloro-5-cyano-[1,1′-biphenyl]-2-yl)sulfonyl)-N-((R,E)-5-(3,3-difluoroazetidin-1-yl)-5-oxopent-3-en-2-yl)-4-fluoro-2-methylpiperidine-4-carboxamide]	190 nM
C[C@H](/C=C\S(C)(=O)=O)NC(=O)C1(F)CCN(S(=O)(=O)c2cc3sccc3cc2-c2ccccc2Cl)CC1 [Compound 157, (R,Z)-1-((5-(2-chlorophenyl)benzo [b]thiophen-6-yl)sulfonyl)-4-fluoro-N-(4-(methylsulfonyl)but-3-en-2-yl)piperidine-4-carboxamide]	200 nM
CC(C)OC(=O)N1C[C@H](C(=O)N2CCC(F)(C(=O)N[C@H](C)/C=C\S(C)(=O)=O)CC2)[C@H](c2ccccc2Cl)C1 [Compound 159, isopropyl(3R,4R)-3-(2-chlorophenyl)-4-(4-fluoro-4-(((R,Z)-4-(methylsulfonyl)but-3-en-2-yl)carbamoyl)piperidine-1-carbonyl)pyrrolidine-1-carboxylate]	980 nM
CCOC(=O)N1C[C@H](C(=O)N2CCC(F)(C(=O)N[C@H](C)/C=C\S(C)(=O)=O)CC2)[C@H](c2ccccc2Cl)C1 [Compound 160, ethyl (3R,4R)-3-(2-chlorophenyl)-4-(4-fluoro-4-(((R,Z)-4-(methylsulfonyl)but-3-en-2-yl)carbamoyl)piperidine-1-carbonyl)pyrrolidine-1-carboxylate]	670 nM
C[C@H](/C=C\S(C)(=O)=O)NC(=O)C1(F)CCN(C(=O)[C@H]2CN(C(=O)C(C)(C)C)C[C@H]2c2ccccc2Cl)CC1 [Compound 161, 1-((3R,4R)-4-(2-chlorophenyl)-1-pivaloylpyrrolidine-3-carbonyl)-4-fluoro-N-((R,Z)-4-(methylsulfonyl)but-3-en-2-yl)piperidine-4-carboxamide]	800 nM
C[C@H](/C=C\S(C)(=O)=O)NC(=O)C1(F)CCN(C(=O)[C@H]2CN(C(=O)c3ccccc3)C[C@H]2c2ccccc2Cl)CC1 [Compound 162, 1-((3R,4R)-1-benzoyl-4-(2-chlorophenyl)pyrrolidine-3-carbonyl)-4-fluoro-N-((R,Z)-4-(methylsulfonyl)but-3-en-2-yl)piperidine-4-carboxamide]	770 nM

Further lines, results first:

IC50	SMILES
500 nM	C[C@H](/C=C\S(C)(=O)=O)NC(=O)C1(F)CCN(C(=O)[C@H]2CN(CC(F)(F)F)C[C@H]2c2ccccc2Cl)CC1 [Compound 163, 1-((3R,4R)-4-(2-chlorophenyl)-1-(2,2,2-trifluoroethyl)pyrrolidine-3-carbonyl)-4-fluoro-N-((R,Z)-4-(methylsulfonyl)but-3-en-2-yl)piperidine-4-carboxamide]
540 nM	CCC(F)(F)CN1C[C@H](C(=O)N2CCC(F)(C(=O)N[C@H](C)/C=C\S(C)(=O)=O)CC2)[C@H](c2ccccc2Cl)C1 [Compound 178, 1-((3R,4R)-4-(2-chlorophenyl)-1-(2,2-difluorobutyl)pyrrolidine-3-carbonyl)-4-fluoro-N-((R,Z)-4-(methylsulfonyl)but-3-en-2-yl)piperidine-4-carboxamide]
700 nM	C[C@H](/C=C\S(C)(=O)=O)NC(=O)C1(F)CCN(C(=O)[C@H]2CN(CC(F)(F)c3ccccc3)C[C@H]2c2ccccc2Cl)CC1 [Compound 181, 1-((3R,4R)-4-(2-chlorophenyl)-1-(2,2-difluoro-2-phenylethyl)pyrrolidine-3-carbonyl)-4-fluoro-N-((R,Z)-4-(methylsulfonyl)but-3-en-2-yl)piperidine-4-carboxamide]
910 nM	C[C@H](/C=C\S(C)(=O)=O)NC(=O)C1(F)CCN(C(=O)[C@H]2CN(CC(F)(F)C(F)(F)F)C[C@H]2c2ccccc2Cl)CC1 [Compound 182, 1-((3R,4R)-4-(2-chlorophenyl)-1-(2,2,3,3,3-pentafluoropropyl)pyrrolidine-3-carbonyl)-4-fluoro-N-((R,Z)-4-(methylsulfonyl)but-3-en-2-yl)piperidine-4-carboxamide]
900 nM	CC(C)OC(=O)N1C[C@H](c2ccccc2Cl)[C@H](C(=O)N2CCC(F)(C(=O)N[C@H](C)/C=C\S(C)(=O)=O)CC2)C1 [Compound 199, isopropyl (3S,4S)-3-(2-chlorophenyl)-4-(4-fluoro-4-(((R,Z)-4-(methylsulfonyl)but-3-en-2-yl)carbamoyl)piperidine-1-carbonyl) pyrrolidine-1-carboxylate]
240 nM	C[C@H](/C=C\S(C)(=O)=O)NC(=O)C1(F)CCN(S(=O)(=O)c2cnc(C(F)(F)F)cc2-c2cccc(F)c2Cl)CC1 [Compound 209, (R,Z)-1-((4-(2-chloro-3-fluorophenyl)-6-(trifluoromethyl)pyridin-3-yl)sulfonyl)-4-fluoro-N-(4-(methylsulfonyl)but-3-en-2-yl)piperidine-4-carboxamide]
1000 nM	C[C@H](/C=C\S(C)(=O)=O)NC(=O)C1(F)CCN(S(=O)(=O)c2cnc(C(F)(F)F)cc2-c2ccc(F)cc2Cl)CC1 [Compound 211, (R,Z)-1-((4-(2-chloro-4-fluorophenyl)-6-(trifluoromethyl)pyridin-3-yl)sulfonyl)-4-fluoro-N-(4-(methylsulfonyl)but-3-en-2-yl)piperidine-4-carboxamide]
380 nM	C[C@@H](/C=C\S(C)(=O)=O)NC(=O)C1(F)CCN(S(=O)(=O)c2cnc(C(F)(F)F)cc2-c2ccc(F)cc2Cl)CC1 [Compound 212, (S,Z)-1-((4-(2-chloro-4-fluorophenyl)-6-(trifluoromethyl)pyridin-3-yl)sulfonyl)-4-fluoro-N-(4-(methylsulfonyl)but-3-en-2-yl)piperidine-4-carboxamide]
220 nM	C[C@H](/C=C\S(C)(=O)=O)NC(=O)[C@]1(F)CCN(S(=O)(=O)c2cnc(C(F)(F)F)cc2-c2ccccc2Cl)[C@H](C)C1 [Compound 214, (2R,4S)-1-((4-(2-chlorophenyl)-6-(trifluoromethyl)pyridin-3-yl)sulfonyl)-4-fluoro-2-methyl-N-((R,Z)-4-(methylsulfonyl)but-3-en-2-yl)piperidine-4-carboxamide]
490 nM	C[C@H](/C=C/C(=O)N1CC(F)(F)C1)NC(=O)[C@]1(F)CCN(S(=O)(=O)c2cnc(C(F)(F)F)cc2-c2ccccc2Cl)[C@H](C)C1 [Compound 215, (2R,4S)-1-((4-(2-chlorophenyl)-6-(trifluoromethyl)pyridin-3-yl)sulfonyl)-N-((R,E)-5-(3,3-difluoroazetidin-1-yl)-5-oxopent-3-en-2-yl)-4-fluoro-2-methylpiperidine-4-carboxamide]
